Some test systems named below: 786-0 renal; EKVX NSCLC; HCC-2998 colon; HCT-15 colon; IGROV1 ovarian; MDA-MB-435; MDA-N; MOLT-4 leukemia; T-47D breast; HT29 colon; MALME-3M melanoma.
What all share (experiment): DTP human tumour cell line panel, 48 h

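Test compounds were applied to cells in 96-well plates for 48 hours at 5 doses. TGI: total growth inhibition.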

As usually defined, the TGI is the concentration at which net growth stops. A higher TGI goes with less potent growth arrest. With `N[C@@H]1C[C@H](N)c2c(Cl)sc(Cl)c21`, the TGI in the experiment with 786-0 renal, in the experiment with EKVX NSCLC, with HCC-2998 colon, with HCT-15 colon, with IGROV1 ovarian and in the experiment on MDA-MB-435 was above 100 µM throughout. For the same compound, the TGI in the experiment with MDA-N, in the experiment on MOLT-4 leukemia and in the experiment on T-47D breast was above 100 µM throughout.
Take `CN(C)c1ccc(C2CC(=O)CC(c3ccc(N(C)C)cc3)C23C(=O)NC(=O)NC3=O)cc1` (centres undefined): the TGI with 786-0 renal, in the experiment on EKVX NSCLC, with HCC-2998 colon, in the experiment with HCT-15 colon, in the experiment with HT29 colon and in the experiment on IGROV1 ovarian was above 25 µM throughout. The TGI in the experiment with MALME-3M melanoma, with MDA-MB-435, with MDA-N, with MOLT-4 leukemia and with T-47D breast was above 25 µM each time.
As for `O=C1C(NCCc2cc(Br)c(O)c(Br)c2)=CC(=O)c2ncccc21`, the TGI in the experiment with 786-0 renal is 34.4 µM; in the experiment with EKVX NSCLC it was 30.7 µM; with HCC-2998 colon, 26 µM; in the experiment on HCT-15 colon, 31.9 µM; in the experiment with HT29 colon it was above 30.6 µM; in the experiment on IGROV1 ovarian it was 10.3 µM. The TGI came to 2.84 µM in the experiment on MALME-3M melanoma; 3.09 µM in the experiment on MDA-MB-435; 3.34 µM in the experiment with MDA-N; 24.1 µM in the experiment on MOLT-4 leukemia; 52 µM in the experiment on T-47D breast.
`CC1CCCc2c(-c3ccc(Cl)cc3)nc(N)c(C#N)c21` (centres undefined): the TGI with 786-0 renal was above 100 µM; with EKVX NSCLC it was 65.8 µM; in the experiment on HCT-15 colon, above 100 µM; with HT29 colon, above 100 µM; with IGROV1 ovarian, 66.1 µM; in the experiment with MALME-3M melanoma it was above 100 µM. Moreover, the TGI with MDA-MB-435 was above 100 µM; in the experiment on MDA-N, 53.4 µM; in the experiment on MOLT-4 leukemia, 69.8 µM; in the experiment with T-47D breast, 35.6 µM.
With `CC(=O)Nc1c(C)cc(OCC(=O)O)cc1C`, the TGI with 786-0 renal, with EKVX NSCLC, with HCC-2998 colon, with HCT-15 colon, in the experiment on HT29 colon and in the experiment on IGROV1 ovarian was above 100 µM each time. The TGI with MALME-3M melanoma, with MDA-MB-435, in the experiment with MDA-N and in the experiment with T-47D breast was above 100 µM each time.
On to `CC(C)=CCC/C(C)=C/Cc1cc(/C=C/c2cc(O)c(CC=C(C)C)c(O)c2)cc(O)c1O`, for which the TGI in the experiment on 786-0 renal turned out to be 17 µM; in the experiment with EKVX NSCLC, 7.46 µM; with HCC-2998 colon, 5.86 µM; in the experiment with HCT-15 colon, 11.9 µM; with HT29 colon it was 13.6 µM; with IGROV1 ovarian, 6.81 µM. Besides, the TGI with MALME-3M melanoma was found to be 18.6 µM; in the experiment on MDA-MB-435 it was 12.2 µM; in the experiment on MDA-N, 12.1 µM; in the experiment on MOLT-4 leukemia it was 11.8 µM; in the experiment on T-47D breast it was 4.54 µM.
As for `CCC(=O)N(c1ccccc1)C(C)CN1CCC(O)(c2ccccc2)CC1` (centres undefined), the TGI in the experiment on 786-0 renal, in the experiment with EKVX NSCLC, in the experiment on HCT-15 colon, with HT29 colon, in the experiment on IGROV1 ovarian and in the experiment on MALME-3M melanoma was above 100 µM in each case. The TGI in the experiment on MDA-MB-435, in the experiment with MDA-N, in the experiment with MOLT-4 leukemia and in the experiment on T-47D breast was above 100 µM throughout.
Regarding `CN(C)c1ccc(C(C#N)N2CCCN(C(C#N)c3ccc(N(C)C)cc3)C2c2ccc(N(C)C)cc2)cc1` (centres undefined), the TGI in the experiment on 786-0 renal, in the experiment on EKVX NSCLC, in the experiment with HCT-15 colon, in the experiment with HT29 colon, with IGROV1 ovarian and with MALME-3M melanoma was above 100 µM each time. The TGI in the experiment with MDA-MB-435, in the experiment on MDA-N, in the experiment on MOLT-4 leukemia and in the experiment on T-47D breast was above 100 µM each time.
Consider `CCOC(=O)CNC(=O)C(CSC(=O)N(O)c1ccc(Br)cc1)NC(=O)CCC(N)C(=O)OCC` (centres undefined), for which the TGI in the experiment with 786-0 renal, in the experiment with EKVX NSCLC, in the experiment with HCC-2998 colon, in the experiment on HCT-15 colon, in the experiment with HT29 colon and in the experiment on IGROV1 ovarian was above 50 µM throughout. Further, the TGI with MALME-3M melanoma, with MDA-MB-435, with MDA-N, in the experiment on MOLT-4 leukemia and in the experiment with T-47D breast was above 50 µM throughout.
As to `CCCOC(=O)c1cc(C(=CCC[C@H]2CC[C@@]3(C)[C@@H](CC[C@@H]4[C@@H]3CC[C@]3(C)[C@@H](C(C)CCCC(C)C)CC[C@@H]43)C2)c2cc(Cl)c(O)c(C(=O)OCCC)c2)cc(Cl)c1O` (some centres undefined), the TGI in the experiment on 786-0 renal, with EKVX NSCLC, in the experiment on HCC-2998 colon, with HCT-15 colon, with HT29 colon and in the experiment on IGROV1 ovarian was above 50 µM each time. Besides, the TGI with MDA-MB-435, in the experiment on MDA-N, in the experiment on MOLT-4 leukemia and with T-47D breast was above 50 µM throughout.
As for `CCOP(=O)(CS(C)=O)O[C@@H]1C[C@H](C)CC[C@H]1C(C)C` (some centres undefined), the TGI in the experiment with 786-0 renal was 6.35 µM; in the experiment with EKVX NSCLC it was 11.2 µM; in the experiment on HCT-15 colon, 7.81 µM; in the experiment with HT29 colon, above 34.1 µM; in the experiment on IGROV1 ovarian, 10.3 µM; with MALME-3M melanoma, 26.8 µM. Further, the TGI was 11.9 µM in the experiment with MDA-MB-435, 8.97 µM in the experiment with MDA-N, above 100 µM with MOLT-4 leukemia and above 29.7 µM with T-47D breast.
Regarding `Fc1ccc(C(OCCN2CCC3CCC(C2)N3CCCc2ccccc2)c2ccc(F)cc2)cc1` (centres undefined), the TGI in the experiment with 786-0 renal came out at 5.57 µM; in the experiment with EKVX NSCLC, 15.2 µM; with HCC-2998 colon, 4.05 µM; in the experiment with HCT-15 colon, 14.5 µM; in the experiment with HT29 colon it was 13.7 µM; in the experiment with IGROV1 ovarian, 17.7 µM. For the same compound, the TGI is 5.46 µM in the experiment with MALME-3M melanoma; 7.46 µM in the experiment with MDA-MB-435; 11.3 µM in the experiment on MDA-N; 7.86 µM with MOLT-4 leukemia; 4.79 µM in the experiment on T-47D breast.
With `CSc1nc(C)cc(Nc2ccc(O)c(CN3CCCCC3)c2)n1`, the TGI with 786-0 renal was 49.1 µM; in the experiment on EKVX NSCLC, 88.7 µM; in the experiment on HCT-15 colon, above 100 µM; in the experiment with HT29 colon, 60.1 µM; with IGROV1 ovarian, above 100 µM; with MALME-3M melanoma, above 100 µM. The TGI was above 100 µM in the experiment on MDA-MB-435, 75.4 µM with MDA-N, above 100 µM in the experiment with MOLT-4 leukemia and above 100 µM in the experiment on T-47D breast.

Source of the values: PubChem BioAssay (NCI).
